This note sets out measurements from patent US7214669B2, “Tetracycline derivatives and methods of use thereof” (Tetragenex Pharmaceuticals, Inc., priority 2001, dated 2007).

One test addresses T1, MMP2 (Gelatinase A) (Homo sapiens, UniProt P08253).
T1 sequence (P08253 110-660): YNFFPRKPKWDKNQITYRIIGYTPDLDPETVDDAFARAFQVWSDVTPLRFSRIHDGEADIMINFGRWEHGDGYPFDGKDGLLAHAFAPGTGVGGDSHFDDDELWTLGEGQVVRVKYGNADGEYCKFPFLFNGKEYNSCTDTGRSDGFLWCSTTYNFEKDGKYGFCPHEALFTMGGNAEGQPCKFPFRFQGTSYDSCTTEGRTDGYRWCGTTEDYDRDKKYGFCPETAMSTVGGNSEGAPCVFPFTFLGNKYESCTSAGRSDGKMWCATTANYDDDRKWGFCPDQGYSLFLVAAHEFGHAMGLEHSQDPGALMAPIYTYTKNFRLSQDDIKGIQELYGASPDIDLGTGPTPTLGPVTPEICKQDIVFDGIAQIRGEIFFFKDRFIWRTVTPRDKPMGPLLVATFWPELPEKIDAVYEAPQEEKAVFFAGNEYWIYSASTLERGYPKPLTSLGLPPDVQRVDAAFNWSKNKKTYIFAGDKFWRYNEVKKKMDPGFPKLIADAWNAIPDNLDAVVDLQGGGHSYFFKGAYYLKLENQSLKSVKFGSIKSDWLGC
Description: MMP2 (Gelatinase A) inhibition, 14C gelatin release. The format is biochemical. Conditions: 37° C., 16 hours; read-out: MMP-2 inhibitory activity, IC50.

Another test has as its target Human recombinant MMP3 (Homo sapiens, UniProt P08254). Description: MMP3 (Stromelysin 1) inhibition, 14C casein release. The format is biochemical. Conditions: 37° C., 16 hours; read-out: MMP-3 inhibitory activity, IC50.
The next test deals with T2, Human recombinant MMP7 (Homo sapiens, UniProt P09237).
T2 sequence (P09237 95-267): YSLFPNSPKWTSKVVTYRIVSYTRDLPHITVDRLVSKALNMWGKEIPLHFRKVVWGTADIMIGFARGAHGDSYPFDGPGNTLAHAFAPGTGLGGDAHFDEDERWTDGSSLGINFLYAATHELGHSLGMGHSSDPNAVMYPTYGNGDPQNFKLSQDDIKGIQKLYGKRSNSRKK
Kind of test: MMP7 (Matrilysin) inhibition, 14C casein release. The format is biochemical. As to conditions: 37° C., 16 hours; read-out: MMP-7 inhibitory activity, IC50.

For the next test, the target named is Human recombinant MMP9 (Homo sapiens, UniProt P14780). Kind of test: MMP9 (Gelatinase B) inhibition, 14C gelatin release. The format is biochemical. As to conditions: 37° C., 16 hours; read-out: MMP-9 inhibitory activity, IC50.
The target of another test is Human recombinant MMP14 (Homo sapiens, UniProt P50281). Description: MMP14 (MTI-MMP) inhibition, 14C collagen release. As to conditions: 35° C., 15 hours; read-out: MMP-14 inhibitory activity, IC50. The format is biochemical.
For test [1], the system named is C8161 human melanoma cells. Description: Membrane Invasion Culture System (MICS) chemo-invasion assay. The format is cell-based. As to conditions: 24 hours, + = increased invasiveness. The source says:
(§1) Another objective was to analyze the effects of specific, tetracycline derived compounds on the in-vitro chemo-invasive potential of: • C8161 human melanoma cells • MDA-MB-231 human breast cancer cells • PC3 human prostate cancer cells • RPM18226 human myeloma cancer cells • Ark human myeloma cancer cells • Arp-1 human myeloma cancer cells
(§2) The Membrane Invasion Culture System (MICS) in vitro chemo-invasion assay was chosen to measure changes in the invasive potential of specific human cancer cells in response to tetracycline derived compounds. Stock solutions of each compound were hydrated in water containing 2% DMSO and pH 10.0. Upon solubilization, HCl was added to the solution to establish a pH of 7.5–8.0. This solution was then wrapped in foil and kept at 4° C. during the 24 hours of assay. Fresh compound was prepared for each assay. The in vitro chemoinvasion analyses for tumor cell invasiveness are performed using the Membrane Invasion Culture System (MICS) as previously described.
(§3) The MICS system is a thermally treated plastic manifold system consisting of two matched sets of plates containing fourteen wells, 13 mm in diameter. Interposed between these plates was a polycarbonate filter containing 10 μm pores and coated with a defined matrix composed of human laminin/collagen IV/gelatin that formed a 35 μm thick barrier between the top and bottom sections of the wells in MICS. Prior to placing this barrier in place, the lower wells were filled with serum-free RPMI culture medium made 50% in conditioned medium obtained from 2-day-old cultures of human fibroblasts which had been cleared of cells and cellular debris by either centrifugation, or filtering through a 0.45 μm sterile filter. The barrier was then placed on the lower wells and fresh serum-free medium added to the upper wells after assembly of the system. Fifty thousand tumor cells were then added to the wells either in the presence of the compound, or the DMSO vehicle (the controls). Of the 12 assay wells on each manifold, 3 randomized wells acted as controls, 3 wells received 1 μg/ml of compound, 3 received 10 μg/ml and 3 received 25 μg/ml. After 24 hours, cells and media were removed from the lower wells and replaced by phosphate buffered saline plus 2 mM EDTA. This solution was used to remove all cells from the lower well, and this wash was added to the recovered cells plus medium from the same well. These samples were then collected onto a polylysine containing polycarbonate membrane containing 3 μm pores using a Dot-Blot manifold system. These collection filters were then fixed in methanol, and stained using Wright's stain (Leukostat staining kit) in situ. The filters were then mounted on microscope slides with microscope immersion oil (which reduced the light refraction from the pores) and 5 microscopic fields were counted to calculate the number of cells which invaded through the membrane over the 24 hour period. These numbers were then statistically analyzed as discussed below.

Test [2] relates to MDA-MB-231 human breast cancer cells. The test is described as above. The format is cell-based. Conditions: 24 hours, + = increased invasiveness.
Description: as §1, §2, §3

The test system of test [3] is PC-3 ML human prostate cancer cells. Described as above. Conditions: 24 hours, + = increased invasiveness. The format is cell-based.
Description: as §1, §2, §3

The subject of test [4] is RPMI-8226 human myeloma cancer cells. Described as above. As to conditions: 24 hours, + = increased invasiveness. The format is cell-based.
Description: as §1, §2, §3

In a further test the target is T3, Human recombinant MMP1 (Homo sapiens, UniProt P03956).
T3 sequence (P03956 100-469): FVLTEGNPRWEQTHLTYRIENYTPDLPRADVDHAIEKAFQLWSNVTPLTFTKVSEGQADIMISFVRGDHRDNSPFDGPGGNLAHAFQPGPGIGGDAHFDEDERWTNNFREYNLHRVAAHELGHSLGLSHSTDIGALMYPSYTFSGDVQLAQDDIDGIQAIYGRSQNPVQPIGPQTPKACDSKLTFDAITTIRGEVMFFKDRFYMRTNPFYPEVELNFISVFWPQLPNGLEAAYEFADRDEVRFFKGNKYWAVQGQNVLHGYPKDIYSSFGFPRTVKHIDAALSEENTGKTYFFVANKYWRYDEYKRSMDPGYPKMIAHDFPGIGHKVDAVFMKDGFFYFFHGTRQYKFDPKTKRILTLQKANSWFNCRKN
Kind of test: MMP1 (Collagenase-1) inhibition, 14C collagen release. The format is biochemical. Conditions: 35° C., 5 hours; read-out: MMP-1 inhibitory activity, IC50.

Chain of Human recombinant MMP3 (P08254 100-477): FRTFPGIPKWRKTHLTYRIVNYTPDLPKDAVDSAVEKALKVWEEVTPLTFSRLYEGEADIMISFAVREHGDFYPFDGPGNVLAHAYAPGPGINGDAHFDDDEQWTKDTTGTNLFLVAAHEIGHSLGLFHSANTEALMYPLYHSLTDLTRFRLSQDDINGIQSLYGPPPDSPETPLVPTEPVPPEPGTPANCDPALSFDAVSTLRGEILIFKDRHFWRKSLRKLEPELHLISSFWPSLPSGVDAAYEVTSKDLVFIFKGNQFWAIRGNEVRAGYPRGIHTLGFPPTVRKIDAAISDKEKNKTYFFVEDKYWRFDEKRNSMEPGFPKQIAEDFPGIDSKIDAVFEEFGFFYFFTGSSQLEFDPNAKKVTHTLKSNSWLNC
Chain of Human recombinant MMP9 (P14780 94-707): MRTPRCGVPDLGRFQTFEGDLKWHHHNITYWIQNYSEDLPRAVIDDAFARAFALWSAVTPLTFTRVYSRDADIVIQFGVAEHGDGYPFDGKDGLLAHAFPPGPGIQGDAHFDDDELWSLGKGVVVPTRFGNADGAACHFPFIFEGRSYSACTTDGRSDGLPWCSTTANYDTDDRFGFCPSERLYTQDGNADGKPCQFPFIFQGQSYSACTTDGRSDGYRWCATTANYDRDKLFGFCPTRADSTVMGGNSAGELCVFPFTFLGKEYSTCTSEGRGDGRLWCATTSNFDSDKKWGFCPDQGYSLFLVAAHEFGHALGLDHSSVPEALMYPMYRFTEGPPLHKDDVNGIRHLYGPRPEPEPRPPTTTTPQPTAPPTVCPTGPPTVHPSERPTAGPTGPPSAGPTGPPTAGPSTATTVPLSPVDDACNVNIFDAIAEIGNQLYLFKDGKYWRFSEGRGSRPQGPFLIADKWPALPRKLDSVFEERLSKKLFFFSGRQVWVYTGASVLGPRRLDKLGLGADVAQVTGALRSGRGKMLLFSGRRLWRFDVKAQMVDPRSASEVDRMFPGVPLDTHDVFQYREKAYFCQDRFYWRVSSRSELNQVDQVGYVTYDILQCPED
Description for Human recombinant MMP9: Protocol for Measuring MMP9 (Gelatinase B) Inhibition
MMP9 activity was determined by the release of trichloracetic acid, TCA soluble fragments from ^14C acetylated rat skin type I (Methods in Enzymology 248, 470, 1995. Biochem. J. 195, 1981)
• 100 μg ^14C labelled gelatin (collagen denatured 60° C. 20 min) • 50 mM Tris HCl pH 7.9 • 15 mM CaCl2, 0.02% azide • Human recombinant MMP9, 1.2–2 nM • ±Tetracycline (up to 1 mM) in a total volume of 250 μl.
Incubations were at 37° C. for 16 hours. The incubations were stopped by cooling the incubations and addition of 50 μl cold 90% (w/v) trichloracetic acid with careful mixing. TCA precipitation was allowed to proceed for 15 minutes at 4° C. prior to centrifugation at 10,000 g for 10 minutes at 4° C. 200 μl of the TCA supernatant was taken for the determination of radioactive content by scintillation counting (Packard Opti Phase Supermix scintillation fluid). Only data derived from within the linear part of the assay (10–70% lysis) were utilized. The percentage inhibition of MMP9 by each tetracycline concentration were plotted to derive the IC50 value.

The term IC50 denotes the midpoint of a concentration-inhibition curve. In the case of `CN(C)c1cc(N)c(O)c2c1CC1CC3C(N(C)C)C(O)=C(C(N)=O)C(=O)C3(O)C(O)=C1C2=O` (stereo not shown) [Compound 7, 9-Amino-7-dimethylamino-6-demethyl-6-deoxytetracycline H2SO4], the IC50 was greater than 1000 µM on MMP2 (Gelatinase A); 300 µM at Human recombinant MMP3; 335 µM on Human recombinant MMP7; 64 µM on Human recombinant MMP9; greater than 1000 µM on Human recombinant MMP14. Further, the “percent inhibition, C8161 (Melanoma)” value in [1] (1 ug/mL) came to 7%; in test [1] (10 ug/mL), 14%; in test [1] (25 ug/mL), 16%. Further, the “percent inhibition, MDA-MB-231 (Breast)” value in [2] (1 ug/mL) is given as “+18%”; in test [2] (10 ug/mL) it was “+41^B percent”; in test [2] (25 ug/mL), “+27%”. Besides, the “percent inhibition, PC-3 ML (Prostrate)” value in test [3] (1 ug/mL) is listed as 0%; in test [3] (10 ug/mL) it was 0%; in [3] (25 ug/mL) it was 3%. The “percent inhibition, RPMI-8226 (Multiple Myeloma)” value in [4] (1 ug/mL) is recorded as “+14^B percent”; in test [4] (10 ug/mL), 12%; in [4] (25 ug/mL), “+2%”.
Take `CC1c2c(N(NC(=O)OCc3ccccc3)C(=O)OCc3ccccc3)ccc(O)c2C(=O)C2=C(O)C3(O)C(=O)C(C(N)=O)=C(O)C(N(C)C)C3C(O)C21.Cl` (stereo not shown) [Compound 47, 7-(1,2-benzylcarboxyhydrazine)-6-deoxy-5-hydroxy-tetracycline HCl]: the half-maximal inhibitory concentration (IC50) was determined as 318 µM at Human recombinant MMP1; 117 µM at MMP2 (Gelatinase A); 68 µM on Human recombinant MMP3; 88 µM on Human recombinant MMP9; 60 µM at Human recombinant MMP14. Moreover, the “percent inhibition, C8161 (Melanoma)” value in test [1] (1 ug/mL) is “+30%”; in [1] (10 ug/mL), “+4%”; in [1] (25 ug/mL), “+2%”. Further, the “percent inhibition, MDA-MB-231 (Breast)” value in test [2] (1 ug/mL) is reported as “+17%”; in test [2] (10 ug/mL) it was “+16^B percent”; in [2] (25 ug/mL) it was 0%. Besides, the “percent inhibition, PC-3 ML (Prostrate)” value in test [3] (1 ug/mL) is 3%; in test [3] (10 ug/mL), 3%; in [3] (25 ug/mL), 5%. The “percent inhibition, RPMI-8226 (Multiple Myeloma)” value in test [4] (1 ug/mL) is reported as 28%; in test [4] (10 ug/mL) it was 18%; in [4] (25 ug/mL) it was 60^B percent.
Turning to `CC1c2c(N)cc(C(C)(C)C)c(O)c2C(=O)C2=C(O)C3(O)C(=O)C(C(N)=O)=C(O)CC3C(O)C21.O=S(=O)(O)O` (stereo not shown) [Compound 49, 7-Amino-9-tertbutyl-4-dedimethyl-6-deoxy-5-hydroxy-tetracycline-H2SO4], the IC50 at Human recombinant MMP1 stood at 372 µM; on MMP2 (Gelatinase A), 1570 µM; at Human recombinant MMP3, 141 µM; on Human recombinant MMP9 it was 489 µM; on Human recombinant MMP14, 87 µM. In addition, the “percent inhibition, C8161 (Melanoma)” value in [1] (1 ug/mL) is on record as 27^B percent; in test [1] (10 ug/mL) it was 7%; in test [1] (25 ug/mL), 30^B percent. In addition, the “percent inhibition, MDA-MB-231 (Breast)” value in test [2] (1 ug/mL) is on record as 6%; in test [2] (10 ug/mL) it was “+5%”; in [2] (25 ug/mL), “+1%”. For the same compound, the “percent inhibition, PC-3 ML (Prostrate)” value is 4% in test [3] (1 ug/mL), “+5%” in test [3] (10 ug/mL) and 6% in test [3] (25 ug/mL). Also, the “percent inhibition, RPMI-8226 (Multiple Myeloma)” value in test [4] (1 ug/mL) is 11%; in test [4] (10 ug/mL) it was “+2%”; in test [4] (25 ug/mL), 15%.
As to `CC1c2c([N+]#N)cc(C(C)(C)C)c(O)c2C(=O)C2=C(O)C3(O)C(=O)C(C(N)=O)=C(O)CC3C(O)C21` (stereo not shown) [Compound 50, 4-Dedimethylamino-9-tertbutyl-6-deoxy-5-hydroxytetracycline-7-diazonium H2SO4], the IC50 at Human recombinant MMP1 came to 211 µM; on MMP2 (Gelatinase A), 2530 µM; at Human recombinant MMP3, 48 µM; on Human recombinant MMP9 it was 34 µM; on Human recombinant MMP14 it was 40 µM. The “percent inhibition, C8161 (Melanoma)” value in [1] (1 ug/mL) was 5%; in [1] (10 ug/mL), “+2%”; in test [1] (25 ug/mL), 1%. Moreover, the “percent inhibition, MDA-MB-231 (Breast)” value in [2] (1 ug/mL) worked out at 7%; in test [2] (10 ug/mL), 0%; in [2] (25 ug/mL), 2%. Also, the “percent inhibition, PC-3 ML (Prostrate)” value in test [3] (1 ug/mL) is recorded as “+14%”; in test [3] (10 ug/mL), “+17%”; in test [3] (25 ug/mL), “+10%”. Moreover, the “percent inhibition, RPMI-8226 (Multiple Myeloma)” value in test [4] (1 ug/mL) is reported as “+14%”; in test [4] (10 ug/mL), “+8%”; in [4] (25 ug/mL), “+13%”.
`CN(C)c1ccc(O)c2c1CC1CC3CC(O)=C(C(N)=O)C(=O)C3(O)C(O)=C1C2=O` (stereo not shown) [Compound 41, 4-Dedimethylamino-7-dimethylamino-6-demethyl-6-deoxy-tetracycline H2SO4]: the IC50 on Human recombinant MMP1 amounted to 478 µM; on MMP2 (Gelatinase A), 889 µM; on Human recombinant MMP3 it was 54 µM; on Human recombinant MMP9 it was 250 µM; at Human recombinant MMP14 it was 403 µM. Further, the “percent inhibition, C8161 (Melanoma)” value in test [1] (1 ug/mL) came out at 2%; in [1] (10 ug/mL), 8%; in test [1] (25 ug/mL), 6%. In addition, the “percent inhibition, MDA-MB-231 (Breast)” value in test [2] (1 ug/mL) was “+8%”; in test [2] (10 ug/mL), 3%; in [2] (25 ug/mL), 2%. Moreover, the entries for the “percent inhibition, PC-3 ML (Prostrate)” value in [3] (1 ug/mL), in test [3] (10 ug/mL) and in test [3] (25 ug/mL) were “+4%”, 4% and 4%, respectively. The figures for the “percent inhibition, RPMI-8226 (Multiple Myeloma)” value in [4] (1 ug/mL), in test [4] (10 ug/mL) and in test [4] (25 ug/mL) were 7%, “+6%” and 14%, respectively.
